Assay results from patent US20250255821A1, “SOLID DISPERSIONS COMPRISING A SGC STIMULATOR” (Cyclerion Therapeutics, Inc., priority 2015, published 2025).

Test: Solubility of Compound I in aqueous media
Format: physicochemical
Conditions: pH independent

OC(CNc1nc(-c2cc(-c3ccon3)n(Cc3ccccc3F)n2)ncc1F)(C(F)(F)F)C(F)(F)F [Compound I, 1,1,1,3,3,3-hexafluoro-2-(((5-fluoro-2-(1-(2-fluorobenzyl)-5-(isoxazol-3-yl)-1H-pyrazol-3-yl)pyrimidin-4-yl)amino)methyl)propan-2-ol]
Solubility in aqueous media: low solubility
